Data on three compounds can be found in article PMC3256138, “Disease Progression in MRL/lpr Lupus-Prone Mice Is Reduced by NCS 613, a Specific Cyclic Nucleotide Phosphodiesterase Type 4 (PDE4) Inhibitor” (PLoS ONE, 2012).

Structures are written as SMILES. Like-named read-outs stand apart in the source and are kept apart here.

One data set concerns PDE1. Description: IC50 on purified PDE1 isozyme (calmodulin-activated). It counts as biochemical, bovine. Particulars: 1 µM cGMP substrate, CaM modulator; mean±s.e.m. of three experiments. As for the experimental part:
(§1) PDE1, PDE3, PDE4 and PDE5 were isolated by anion exchange chromatography from bovine aortic smooth muscle cytosolic fraction. PDE2 was isolated from human platelets following the method described in [44]. Purified PDEs were stored as small aliquots at −80°C until use. PDE activity was determined at a substrate concentration of 1 µM cAMP or cGMP in the presence of 10,000 cpm [^3H]-cAMP or -cGMP as tracers. PDE1 activity was assessed at 1 µM cGMP in calmodulin-activated state (18 nM calmodulin with 10 µM CaCl2). PDE2 activity was assessed at 1 µM cAMP in activated state (+5 µM cGMP), and PDE3 and PDE4 activities were assessed at 1 µM cAMP in the presence of 1 mM EGTA. […] PDE5 activity was measured at 1 µM cGMP in the presence of 1 mM of EGTA. […] This concentration of DMSO had no effect when tested in control preparation.

Data set [1] relates to PDE4. The data set is described as follows: IC50 on purified PDE4 isozyme. The data set is classed as biochemical, bovine. Particulars: for IC50: 1 µM cAMP substrate, mean±s.e.m. of three experiments. As for the experimental part:
as §1

The test system of the next data set is PBLs from MRL/lpr mice. Description: Ex vivo LPS-induced TNFα secretion by PBLs from treated MRL/lpr mice. Particulars: PBLs of 14 week-old mice treated i.v. (100 µg pentoxifylline or denbufylline, 30 µg NCS 613); 5 µg/mL LPS, 24 h. The data set is classed as in vivo, mouse. As for the experimental part: Blood samples were pooled from groups of seven 14 week-old treated mice. PBLs were purified by density separation (Lympholyte-M, d = 1.0875; Cedarlane, Hornby, Canada), washed three times, and resuspended at 5×10^6 cells/ml in L-alanyl-L-glutamine-enriched RPMI 1640 medium (Cambrex, Verviers, Belgium) containing 10% (v/v) fetal calf serum (Dutscher, Brumath, France), HEPES, gentamycin and β-mercaptoethanol. They were cultured in duplicate using 5×10^5 cells/well in the presence of 5 µg/mL LPS from E. coli. Culture supernatants were collected after 24 h and stored frozen at −20°C. TNFα levels were determined using a double-sandwich ELISA (PharMingen, San Diego, CA; detection limit 30 pg/mL) according to the manufacturer's instructions.

In a further data set the test system is MRL/lpr lupus-prone mice. The data set is described as follows: Treatment of MRL/lpr lupus-prone mice with PDE inhibitors: proteinuria, survival, anti-DNA antibodies. The conditions noted are these: for Median survival time / Mice with positive proteinuria: 100 µg i.v. at 5, 7, 9 and 13 weeks; for Mice with positive proteinuria: at 18 weeks of age; for Age at which treated mice started dying / Proteinuria level compared to the control group: i.v. at 5, 7, 9 and 13 weeks; for Age at which treated mice started dying: control 17 weeks; for Proteinuria level compared to the control group: 100 µg pentoxifylline or 30 µg NCS 613.

Another data set concerns the target T1, PDE2 (Homo sapiens, UniProt O00408).
T1 construct: PDE2 was isolated from human platelets; from tissue; host or cells: human platelets
The data set is described as follows: IC50 on purified PDE2 isozyme (cGMP-activated). The data set is classed as biochemical. The conditions noted are these: 1 µM cAMP substrate, cGMP modulator; mean±s.e.m. of three experiments. As for the experimental part: as §1

Another data set deals with T2, PDE5 (Bos taurus, UniProt Q28156).
T2 construct: isolated by anion exchange chromatography from bovine aortic smooth muscle cytosolic fraction; from tissue; host or cells: bovine aortic smooth muscle cytosolic fraction
Description: IC50 on purified PDE5 isozyme. The data set is classed as biochemical, bovine. The conditions noted are these: 1 µM cGMP substrate; mean±s.e.m. of three experiments. As for the experimental part:
as §1

The target of the next data set is T3, PDE3 (Bos taurus, UniProt A0A3Q1M1E8).
T3 sequence (A0A3Q1M1E8 1-1126): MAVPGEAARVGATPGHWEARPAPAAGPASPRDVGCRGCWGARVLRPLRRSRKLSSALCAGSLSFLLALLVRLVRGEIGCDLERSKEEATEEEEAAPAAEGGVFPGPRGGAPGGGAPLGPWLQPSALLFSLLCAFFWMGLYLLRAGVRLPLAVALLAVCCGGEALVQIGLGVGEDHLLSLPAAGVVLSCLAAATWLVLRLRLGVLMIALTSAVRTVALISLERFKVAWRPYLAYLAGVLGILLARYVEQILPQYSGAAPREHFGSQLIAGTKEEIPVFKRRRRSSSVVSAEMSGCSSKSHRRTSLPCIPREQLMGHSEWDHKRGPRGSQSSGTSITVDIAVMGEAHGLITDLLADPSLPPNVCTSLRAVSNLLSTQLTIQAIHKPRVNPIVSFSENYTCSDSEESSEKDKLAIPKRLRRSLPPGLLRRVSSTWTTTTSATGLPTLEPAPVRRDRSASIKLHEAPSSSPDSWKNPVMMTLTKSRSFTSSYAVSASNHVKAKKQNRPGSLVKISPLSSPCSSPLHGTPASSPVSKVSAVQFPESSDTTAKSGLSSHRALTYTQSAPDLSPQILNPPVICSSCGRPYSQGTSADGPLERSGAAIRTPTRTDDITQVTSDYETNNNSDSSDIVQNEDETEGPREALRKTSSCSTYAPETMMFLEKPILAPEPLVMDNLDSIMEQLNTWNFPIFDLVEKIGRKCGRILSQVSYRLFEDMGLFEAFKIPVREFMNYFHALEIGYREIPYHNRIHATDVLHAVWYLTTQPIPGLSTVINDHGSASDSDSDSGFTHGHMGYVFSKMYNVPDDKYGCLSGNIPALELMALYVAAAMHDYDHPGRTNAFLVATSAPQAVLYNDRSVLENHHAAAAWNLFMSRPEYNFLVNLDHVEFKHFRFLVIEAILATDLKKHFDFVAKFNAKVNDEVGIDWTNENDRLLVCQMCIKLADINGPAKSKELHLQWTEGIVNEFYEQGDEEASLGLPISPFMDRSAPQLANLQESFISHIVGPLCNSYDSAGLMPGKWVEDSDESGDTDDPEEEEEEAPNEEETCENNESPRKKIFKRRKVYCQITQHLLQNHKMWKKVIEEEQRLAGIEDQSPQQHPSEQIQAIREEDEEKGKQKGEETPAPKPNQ
The data set is described as follows: IC50 on purified PDE3 isozyme. The conditions noted are these: 1 µM cAMP substrate; mean±s.e.m. of three experiments. The data set is classed as biochemical, bovine. As for the experimental part: PDE2 was isolated from human platelets following the method described in [44]. Purified PDEs were stored as small aliquots at −80°C until use. PDE activity was determined at a substrate concentration of 1 µM cAMP or cGMP in the presence of 10,000 cpm [^3H]-cAMP or -cGMP as tracers. PDE1 activity was assessed at 1 µM cGMP in calmodulin-activated state (18 nM calmodulin with 10 µM CaCl2). […] This concentration of DMSO had no effect when tested in control preparation.

The next data set deals with T4, human recombinant PDE4A (Homo sapiens, UniProt P27815).
T4 construct: gift of Ted J. Torphy (SmithKline Beecham Pharmaceuticals, King of Prussia, PA, USA)
T4 sequence (P27815 whole entry): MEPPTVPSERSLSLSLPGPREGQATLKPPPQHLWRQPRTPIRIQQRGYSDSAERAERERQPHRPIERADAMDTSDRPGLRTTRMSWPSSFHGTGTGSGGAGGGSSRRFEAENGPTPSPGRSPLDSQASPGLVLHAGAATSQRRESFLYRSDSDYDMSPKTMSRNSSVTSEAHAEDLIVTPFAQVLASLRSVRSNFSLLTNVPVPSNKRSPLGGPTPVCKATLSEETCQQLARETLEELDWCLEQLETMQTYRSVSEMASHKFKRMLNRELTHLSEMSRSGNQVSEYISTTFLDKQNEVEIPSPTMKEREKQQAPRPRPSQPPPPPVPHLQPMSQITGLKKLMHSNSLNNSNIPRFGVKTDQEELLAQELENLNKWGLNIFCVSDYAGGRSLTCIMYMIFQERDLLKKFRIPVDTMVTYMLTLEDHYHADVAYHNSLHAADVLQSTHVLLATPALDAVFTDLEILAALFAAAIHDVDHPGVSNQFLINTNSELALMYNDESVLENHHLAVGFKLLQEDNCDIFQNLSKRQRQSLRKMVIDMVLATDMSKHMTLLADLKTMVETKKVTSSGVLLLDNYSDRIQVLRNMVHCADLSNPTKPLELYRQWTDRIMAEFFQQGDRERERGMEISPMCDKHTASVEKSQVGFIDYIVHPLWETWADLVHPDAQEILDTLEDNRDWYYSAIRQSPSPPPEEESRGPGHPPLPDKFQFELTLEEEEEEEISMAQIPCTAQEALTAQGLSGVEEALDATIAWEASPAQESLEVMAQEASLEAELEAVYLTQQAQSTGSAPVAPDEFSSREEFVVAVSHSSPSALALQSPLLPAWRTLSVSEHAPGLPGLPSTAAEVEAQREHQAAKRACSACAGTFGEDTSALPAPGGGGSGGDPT
Description: IC50 on human recombinant PDE4A. The data set is classed as biochemical.

In another data set the target is T5, human recombinant PDE4B (Homo sapiens, UniProt Q07343).
T5 construct: gift of Ted J. Torphy (SmithKline Beecham Pharmaceuticals, King of Prussia, PA, USA)
T5 sequence (Q07343 whole entry): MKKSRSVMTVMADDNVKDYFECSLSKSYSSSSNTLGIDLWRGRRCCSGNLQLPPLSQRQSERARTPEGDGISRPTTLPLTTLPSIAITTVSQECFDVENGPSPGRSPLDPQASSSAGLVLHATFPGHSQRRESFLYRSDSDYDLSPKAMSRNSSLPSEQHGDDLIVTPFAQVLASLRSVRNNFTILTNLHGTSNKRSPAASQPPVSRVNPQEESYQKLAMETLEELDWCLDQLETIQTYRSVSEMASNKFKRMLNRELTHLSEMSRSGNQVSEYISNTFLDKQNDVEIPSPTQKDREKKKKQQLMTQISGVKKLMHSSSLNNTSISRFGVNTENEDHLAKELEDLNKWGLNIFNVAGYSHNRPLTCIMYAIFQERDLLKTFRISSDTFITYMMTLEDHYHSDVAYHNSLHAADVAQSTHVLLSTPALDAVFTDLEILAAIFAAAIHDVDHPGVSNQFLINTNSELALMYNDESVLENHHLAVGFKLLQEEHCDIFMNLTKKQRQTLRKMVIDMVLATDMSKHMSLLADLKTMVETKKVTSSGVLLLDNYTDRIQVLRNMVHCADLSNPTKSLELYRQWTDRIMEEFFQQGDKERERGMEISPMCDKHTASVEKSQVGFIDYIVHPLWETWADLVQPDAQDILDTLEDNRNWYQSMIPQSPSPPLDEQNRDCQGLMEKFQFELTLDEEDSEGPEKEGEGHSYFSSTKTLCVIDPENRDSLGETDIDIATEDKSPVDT
Description: IC50 on human recombinant PDE4B. The data set is classed as biochemical.

In a further data set the target is T6, human recombinant PDE4C (Homo sapiens, UniProt Q08493).
T6 construct: gift of Ted J. Torphy (SmithKline Beecham Pharmaceuticals, King of Prussia, PA, USA)
T6 sequence (Q08493 whole entry): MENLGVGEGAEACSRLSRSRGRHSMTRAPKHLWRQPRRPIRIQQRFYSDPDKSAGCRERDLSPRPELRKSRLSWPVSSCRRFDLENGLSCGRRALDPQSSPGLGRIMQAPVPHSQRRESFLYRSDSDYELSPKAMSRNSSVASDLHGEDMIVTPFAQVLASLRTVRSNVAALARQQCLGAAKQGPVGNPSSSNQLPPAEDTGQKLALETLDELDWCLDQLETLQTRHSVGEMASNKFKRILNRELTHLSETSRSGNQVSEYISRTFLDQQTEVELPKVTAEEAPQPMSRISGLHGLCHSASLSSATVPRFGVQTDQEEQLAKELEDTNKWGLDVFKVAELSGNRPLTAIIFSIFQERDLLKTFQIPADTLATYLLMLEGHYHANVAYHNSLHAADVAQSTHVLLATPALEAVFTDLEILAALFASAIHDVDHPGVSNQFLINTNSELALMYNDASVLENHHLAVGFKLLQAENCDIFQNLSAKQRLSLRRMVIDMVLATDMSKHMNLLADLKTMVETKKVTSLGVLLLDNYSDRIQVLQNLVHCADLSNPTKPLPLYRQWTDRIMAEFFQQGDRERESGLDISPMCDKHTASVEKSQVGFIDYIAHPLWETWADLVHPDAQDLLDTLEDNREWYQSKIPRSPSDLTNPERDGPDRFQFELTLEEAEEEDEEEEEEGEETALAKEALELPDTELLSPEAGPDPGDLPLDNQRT
The data set is described as follows: IC50 on human recombinant PDE4C. It counts as biochemical. The conditions noted are these: 1 µM cAMP; with confidence interval.

The next data set deals with T7, human recombinant PDE4D (Homo sapiens, UniProt Q08499).
T7 construct: gift of Ted J. Torphy (SmithKline Beecham Pharmaceuticals, King of Prussia, PA, USA)
T7 sequence (Q08499 whole entry): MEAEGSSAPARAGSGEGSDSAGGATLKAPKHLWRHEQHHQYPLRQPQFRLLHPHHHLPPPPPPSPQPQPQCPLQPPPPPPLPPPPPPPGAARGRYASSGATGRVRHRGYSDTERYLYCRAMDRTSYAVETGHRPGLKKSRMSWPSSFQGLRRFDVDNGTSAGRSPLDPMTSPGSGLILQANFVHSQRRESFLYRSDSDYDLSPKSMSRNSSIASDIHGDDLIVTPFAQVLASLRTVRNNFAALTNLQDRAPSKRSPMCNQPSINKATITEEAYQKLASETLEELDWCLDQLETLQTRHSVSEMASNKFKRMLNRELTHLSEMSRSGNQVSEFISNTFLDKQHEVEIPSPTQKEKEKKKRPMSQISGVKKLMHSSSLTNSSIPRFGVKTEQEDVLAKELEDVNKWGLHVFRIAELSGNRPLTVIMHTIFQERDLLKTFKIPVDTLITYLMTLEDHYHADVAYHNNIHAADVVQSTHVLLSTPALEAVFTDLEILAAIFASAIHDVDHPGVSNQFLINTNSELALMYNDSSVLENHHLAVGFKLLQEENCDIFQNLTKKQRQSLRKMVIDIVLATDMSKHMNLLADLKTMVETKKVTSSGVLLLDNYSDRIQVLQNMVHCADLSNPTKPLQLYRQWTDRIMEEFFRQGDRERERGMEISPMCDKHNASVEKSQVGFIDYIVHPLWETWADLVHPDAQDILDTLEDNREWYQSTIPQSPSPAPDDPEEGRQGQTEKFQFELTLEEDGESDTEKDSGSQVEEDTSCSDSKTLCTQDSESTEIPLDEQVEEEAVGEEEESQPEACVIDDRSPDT
The data set is described as follows: IC50 on human recombinant PDE4D. The data set is classed as biochemical.

The target in data set [2] is High Affinity Rolipram Binding Site (HARBS). The data set is described as follows: 3H-rolipram binding assay on rat brain membranes. Particulars: rat brain membrane, 4 nM 3H-rolipram; read-out: Ki toward 3H-rolipram binding (HARBS).
Description: The assay was done in 50 mM N-Tris hydroxymethyl methyl-2-aminoethane sulfonic acid/NaOH buffer, pH 7.6, containing 10 mM MgCl2, 0.1 M NaCl and 100 µM 5′AMP. […] Binding assays were started by the addition of 100 µL of rat brain membrane (0.9 mg protein/mL) to the reaction mixture and conducted at 23°C for 1 h under agitation and stopped by the addition of 3 mL of ice-cold reaction buffer and rapid vacuum filtration through Whatman GF/B filters that have been soaked in 0.3% (v/v) polyethylenimine. Filters were washed twice (3 ml of ice-cold reaction buffer without 5′AMP), dried and counted by liquid scintillation. […] Ki and confidence interval values of binding studies were determined by using one site fit Ki GraphPad Prism5 analysis.
Another data set has as its system PBLs from SLE patients. Description: TNFα secretion by PBLs from SLE patients. The data set is classed as cell-based, human. Particulars: for Effect on LPS-induced TNFα production: 5 µg/mL LPS, 24 h. As to the method:
PBLs were isolated by centrifugation on Ficoll-Histopaque (Sigma-Aldrich) and cultured as described above using 5×10^5 cells/well. […] Culture supernatants were collected 24 h later and stored frozen at −20°C before TNFα level determination, as described above.

A short description of data set [3]: Solubility in injection vehicle PBS-10% ethanol. It counts as physicochemical. Particulars: at 100 µg/100 µL.
The test system of data set [4] is PDE4. Details: method as in PMID 9191951. The conditions noted are these: text value with reference; cited from earlier work.
The subject of another data set is human PBLs. On the set-up: method as in PMID 10640302. The conditions noted are these: read-out: IC50 LPS-induced TNFα secretion by human PBLs; cited from earlier work.
The next data set relates to acid gastric secretion. On the set-up: method as in PMID 10640302. Particulars: cited from earlier work.
Where [5] appears, read: 1 µM cAMP, with confidence interval.

T1 sequence (O00408 whole entry): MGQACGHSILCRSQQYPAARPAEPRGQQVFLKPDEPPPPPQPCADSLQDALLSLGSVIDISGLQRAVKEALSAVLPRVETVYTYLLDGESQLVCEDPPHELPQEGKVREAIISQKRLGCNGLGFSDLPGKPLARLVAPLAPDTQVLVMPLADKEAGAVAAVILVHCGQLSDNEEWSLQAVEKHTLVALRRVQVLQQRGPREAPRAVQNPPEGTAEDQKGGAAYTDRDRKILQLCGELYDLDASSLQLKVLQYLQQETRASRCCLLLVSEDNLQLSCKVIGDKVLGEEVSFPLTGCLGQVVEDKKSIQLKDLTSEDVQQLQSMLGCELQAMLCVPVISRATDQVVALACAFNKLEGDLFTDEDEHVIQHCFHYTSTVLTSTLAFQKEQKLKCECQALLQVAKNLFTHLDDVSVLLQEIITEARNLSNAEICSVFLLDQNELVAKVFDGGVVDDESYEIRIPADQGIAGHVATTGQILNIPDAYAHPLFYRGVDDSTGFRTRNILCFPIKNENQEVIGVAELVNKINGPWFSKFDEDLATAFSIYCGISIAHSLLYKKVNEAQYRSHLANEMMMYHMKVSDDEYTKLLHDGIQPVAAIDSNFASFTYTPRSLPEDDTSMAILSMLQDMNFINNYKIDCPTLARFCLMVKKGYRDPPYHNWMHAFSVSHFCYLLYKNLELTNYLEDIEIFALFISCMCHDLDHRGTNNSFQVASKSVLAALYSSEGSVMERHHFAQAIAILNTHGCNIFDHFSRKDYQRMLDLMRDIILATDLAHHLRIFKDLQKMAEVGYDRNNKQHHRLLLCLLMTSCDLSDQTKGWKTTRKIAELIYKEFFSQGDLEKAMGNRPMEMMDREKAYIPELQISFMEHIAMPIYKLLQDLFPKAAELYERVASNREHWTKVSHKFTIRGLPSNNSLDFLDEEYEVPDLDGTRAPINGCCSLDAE
Description for MRL/lpr lupus-prone mice: All mice were monitored regularly for different clinical and biological parameters over 26 weeks. Measurements of outcome included the evaluation of survival and proteinuria measured on a fresh urine sample. Protein levels were determined using colored strips (Albutix; Bayer Diagnostics, Basingstoke, UK) and scored at values corresponding to 30, 100, 300 and >2000 mg/dL.

Broadly, the IC50 is the midpoint of a concentration-inhibition curve. With `CCCCn1c(=O)c2c(ncn2CC(C)=O)n(CCCC)c1=O` [Denbufylline, denbufylline], it took 133 ± 11 µM to reach half-maximal inhibition in the data set on PDE1 (IC50). Besides, the IC50 with PDE4 [1] is 0.76 ± 0.05 µM. In addition, the “Inhibition rate of LPS-induced TNFα secretion” value (“Inhibition rate” for short) in the data set on PBLs from MRL/lpr mice turned out to be 70%. Also, in the data set on MRL/lpr lupus-prone mice, the Median survival time was found to be 26.5 weeks, the “Mice with positive proteinuria” value is recorded as “around 50%” and the “Age at which treated mice started dying” value worked out at 15 weeks.

As to `CC(=O)CCCCn1c(=O)c2c(ncn2C)n(C)c1=O` [Pentoxifylline, pentoxifylline], the IC50 in the data set with PDE1 was determined as 236 ± 20 µM; on PDE2 it was 119 ± 10 µM; in the data set on PDE4 [1], 135 ± 11 µM; against PDE5 it was 74 ± 6 µM. Further, in the data set with PBLs from MRL/lpr mice, the “Inhibition rate” value is recorded as 51%. The Median survival time with MRL/lpr lupus-prone mice worked out at 27.5 weeks. Also, in the data set on MRL/lpr lupus-prone mice, the “Mice with positive proteinuria” value is “around 50%”. Also, the “Proteinuria level compared to the control group” value with MRL/lpr lupus-prone mice was “significantly lower”. Further, the “Age at which treated mice started dying” value with MRL/lpr lupus-prone mice is on record as 22 weeks.

One may read the Ki as a measure of affinity in units of concentration, obtained from inhibition or displacement. As for `CNc1nc(C(F)(F)F)nc2c1ncn2Cc1ccccc1F` [NCS 613], the 50% inhibitory concentration (IC50) was 39 ± 2 µM in the data set on PDE1; 24 ± 3 µM against PDE2; over 300 µM at PDE3; 0.042 ± 0.003 µM in the data set with PDE4 [1]; 4.7 ± 0.1 µM against PDE5; 0.044 µM on human recombinant PDE4A. Also, the IC50 on human recombinant PDE4A (setting [5]) turned out to be 0.0436 µM; at human recombinant PDE4B, 0.048 µM; at human recombinant PDE4B (setting [5]) it was 0.0481 µM; at human recombinant PDE4C it was 0.0014 µM; on human recombinant PDE4D, 0.014 µM; at human recombinant PDE4D (setting [5]), 0.0144 µM. The IC50 in the data set with PDE4 [4] is 0.042 µM; in the data set on human PBLs, 0.018 µM. In addition, the “PDE4 selectivity relatively to PDE1” value in the data set with PDE4 [1] is recorded as 930 fold. Besides, the “PDE4 selectivity relatively to PDE5” value in the data set on PDE4 [1] is reported as 112 fold. Besides, the PDE5/PDE4 ratio in the data set on PDE4 [1] (ratio of IC50 values PDE5/PDE4) is 111.9. The Ki in [2] came out at 0.148 µM. Also, the “Inhibition rate” value in the data set with PBLs from MRL/lpr mice was 54%. Moreover, the “Decrease of basal TNFα secretion level” value in the data set with PBLs from SLE patients (10 µM, no LPS, cells from patient 2) was found to be 67%. Besides, the “Effect on LPS-induced TNFα production” value is “No effect” with PBLs from SLE patients (patient SLE1, 0.1 µM); “significantly suppressed” in the data set with PBLs from SLE patients (patient SLE1, 1 µM); “significantly suppressed” with PBLs from SLE patients (patient SLE1, 10 µM). For the same compound, the “Solubility in PBS-10% ethanol” value in [3] is reported as “not soluble”. Further, the “Induction of acid gastric secretion” value in the data set on acid gastric secretion is on record as “does not induce”. In the data set on MRL/lpr lupus-prone mice (30 µg i.v. at 5, 7, 9 and 13 weeks), the “Age of the first mouse that developed proteinuria” value came out at 18 week-old. For the same compound, the “Effect on survival of MRL/lpr mice” value in the data set on MRL/lpr lupus-prone mice (30 µg i.v. at 5, 7, 9 and 13 weeks, P = 0.005) is “significantly increased”. This compound also registered a Mice still alive in the data set on MRL/lpr lupus-prone mice (at 31 weeks, 30 µg i.v. at 5, 7, 9 and 13 weeks) of 50%. For the same compound, the “Proteinuria level compared to the control group” value in the data set with MRL/lpr lupus-prone mice is listed as “significantly lower”. Besides, the “Age at which treated mice started dying” value in the data set on MRL/lpr lupus-prone mice is given as 26 weeks.
